{
  "source": "ChEMBL document CHEMBL1201862",
  "about": "“PubChem BioAssay data set” (2004)",
  "experiment_in_all_cases": "inhibition of tumour cell growth, NCI panel, 48 h",
  "key": {"NCI-H522": {"tested_on": "NCI-H522"}, "U-251": {"tested_on": "U-251"}, "SK-MEL-5": {"tested_on": "SK-MEL-5"}, "OVCAR-4": {"tested_on": "OVCAR-4"}, "LOX IMVI": {"tested_on": "LOX IMVI"}, "OVCAR-8": {"tested_on": "OVCAR-8"}, "HT-29": {"tested_on": "HT-29"}, "M19-MEL": {"tested_on": "M19-MEL"}, "EKVX": {"tested_on": "EKVX"}, "IGROV-1": {"tested_on": "IGROV-1"}, "KM12": {"tested_on": "KM12"}, "UACC-62": {"tested_on": "UACC-62"}, "HOP-62": {"tested_on": "HOP-62"}, "A498": {"tested_on": "A498"}, "SNB-78": {"tested_on": "SNB-78"}, "K562": {"tested_on": "K562"}, "786-0": {"tested_on": "786-0"}, "HCT-15": {"tested_on": "HCT-15"}, "NCI-H226": {"tested_on": "NCI-H226"}, "CAKI-1": {"tested_on": "CAKI-1"}, "LXFL 529": {"tested_on": "LXFL 529"}, "HCC 2998": {"tested_on": "HCC 2998"}, "SNB-75": {"tested_on": "SNB-75"}, "SW-620": {"tested_on": "SW-620"}, "HL-60": {"tested_on": "HL-60"}, "XF498": {"tested_on": "XF498"}, "SF-295": {"tested_on": "SF-295"}, "RXF 393": {"tested_on": "RXF 393"}, "DLD-1": {"tested_on": "DLD-1"}, "NCI-H460": {"tested_on": "NCI-H460"}, "M14": {"tested_on": "M14"}, "DMS-273": {"tested_on": "DMS-273"}, "TK-10": {"tested_on": "TK-10"}, "SF-539": {"tested_on": "SF-539"}, "Malme-3M": {"tested_on": "Malme-3M"}, "SF-268": {"tested_on": "SF-268"}, "DMS-114": {"tested_on": "DMS-114"}, "OVCAR-5": {"tested_on": "OVCAR-5"}, "SNB-19": {"tested_on": "SNB-19"}, "ACHN": {"tested_on": "ACHN"}, "UACC-257": {"tested_on": "UACC-257"}, "COLO 205": {"tested_on": "COLO 205"}, "CCRF-CEM": {"tested_on": "CCRF-CEM"}, "HOP-18": {"tested_on": "HOP-18"}, "KM-20L2": {"tested_on": "KM-20L2"}, "RXF 631": {"tested_on": "RXF 631"}, "SN12C": {"tested_on": "SN12C"}, "OVCAR-3": {"tested_on": "OVCAR-3"}, "HCT-116": {"tested_on": "HCT-116"}, "UO-31": {"tested_on": "UO-31"}, "HOP-92": {"tested_on": "HOP-92"}, "A549": {"tested_on": "A549"}, "SR": {"tested_on": "SR"}, "SK-MEL-28": {"tested_on": "SK-MEL-28"}, "NCI-H23": {"tested_on": "NCI-H23"}},
  "note": "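Values below derive from 48-hour exposures of cells grown in 96-well plates, with endpoints linearly interpolated between the two concentrations bracketing the appropriate inhibition level. GI50 marks 50% less growth.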 Activity calls are given as the source filed them. Rule as the data show it: active = GI50 up to about 1.1 µM and inactive = higher.",
  "data": [
    {"smiles": "C/C(=N/NC(=O)CC(=O)N(C(=O)c1ccccc1Cl)c1ccc(C)cc1)c1cc2ccccc2oc1=O", "values": [
      {"measurement": "GI50", "setting": "NCI-H522", "value": "> 100 µM (inactive)"},
      {"measurement": "GI50", "setting": "U-251", "value": "> 100 µM (inactive)"},
      {"measurement": "GI50", "setting": "SK-MEL-5", "value": "65.3 µM (inactive)"},
      {"measurement": "GI50", "setting": "OVCAR-4", "value": "> 100 µM (inactive)"},
      {"measurement": "GI50", "setting": "LOX IMVI", "value": "73.1 µM (inactive)"},
      {"measurement": "GI50", "setting": "OVCAR-8", "value": "> 100 µM (inactive)"},
      {"measurement": "GI50", "setting": "HT-29", "value": "> 100 µM (inactive)"},
      {"measurement": "GI50", "setting": "M19-MEL", "value": "> 100 µM (inactive)"},
      {"measurement": "GI50", "setting": "EKVX", "value": "> 100 µM (inactive)"},
      {"measurement": "GI50", "setting": "IGROV-1", "value": "> 100 µM (inactive)"},
      {"measurement": "GI50", "setting": "KM12", "value": "> 100 µM (inactive)"},
      {"measurement": "GI50", "setting": "UACC-62", "value": "> 100 µM (inactive)"},
      {"measurement": "GI50", "setting": "HOP-62", "value": "> 100 µM (inactive)"},
      {"measurement": "GI50", "setting": "A498", "value": "> 100 µM (inactive)"},
      {"measurement": "GI50", "setting": "SNB-78", "value": "> 100 µM (inactive)"},
      {"measurement": "GI50", "setting": "K562", "value": "> 100 µM (inactive)"},
      {"measurement": "GI50", "setting": "786-0", "value": "> 100 µM (inactive)"},
      {"measurement": "GI50", "setting": "HCT-15", "value": "> 100", "unit": "µM"},
      {"measurement": "GI50", "setting": "NCI-H226", "value": "> 100 µM (inactive)"},
      {"measurement": "GI50", "setting": "CAKI-1", "value": "> 100 µM (inactive)"},
      {"measurement": "GI50", "setting": "LXFL 529", "value": "> 100 µM (inactive)"},
      {"measurement": "GI50", "setting": "HCC 2998", "value": "> 100 µM (inactive)"},
      {"measurement": "GI50", "setting": "SNB-75", "value": "31 µM (inactive)"},
      {"measurement": "GI50", "setting": "SW-620", "value": "> 100 µM (inactive)"},
      {"measurement": "GI50", "setting": "HL-60", "value": "> 100 µM (inactive)"},
      {"measurement": "GI50", "setting": "XF498", "value": "> 100 µM (inactive)"},
      {"measurement": "GI50", "setting": "SF-295", "value": "> 100 µM (inactive)"},
      {"measurement": "GI50", "setting": "RXF 393", "value": "> 100 µM (inactive)"},
      {"measurement": "GI50", "setting": "DLD-1", "value": "> 100 µM (inactive)"},
      {"measurement": "GI50", "setting": "NCI-H460", "value": "> 100 µM (inactive)"},
      {"measurement": "GI50", "setting": "M14", "value": "65.3 µM (inactive)"},
      {"measurement": "GI50", "setting": "DMS-273", "value": "> 100 µM (inactive)"},
      {"measurement": "GI50", "setting": "TK-10", "value": "95.5 µM (inactive)"},
      {"measurement": "GI50", "setting": "SF-539", "value": "> 100 µM (inactive)"},
      {"measurement": "GI50", "setting": "Malme-3M", "value": "> 100 µM (inactive)"},
      {"measurement": "GI50", "setting": "SF-268", "value": "> 100 µM (inactive)"},
      {"measurement": "GI50", "setting": "DMS-114", "value": "49.8 µM (inactive)"},
      {"measurement": "GI50", "setting": "OVCAR-5", "value": "> 100 µM (inactive)"},
      {"measurement": "GI50", "setting": "SNB-19", "value": "> 100 µM (inactive)"},
      {"measurement": "GI50", "setting": "ACHN", "value": "> 100 µM (inactive)"},
      {"measurement": "GI50", "setting": "UACC-257", "value": "> 100 µM (inactive)"},
      {"measurement": "GI50", "setting": "COLO 205", "value": "> 100 µM (inactive)"},
      {"measurement": "GI50", "setting": "CCRF-CEM", "value": "> 100 µM (inactive)"},
      {"measurement": "GI50", "setting": "HOP-18", "value": "> 100 µM (inactive)"},
      {"measurement": "GI50", "setting": "KM-20L2", "value": "> 100 µM (inactive)"},
      {"measurement": "GI50", "setting": "RXF 631", "value": "> 100 µM (inactive)"},
      {"measurement": "GI50", "setting": "SN12C", "value": "> 100 µM (inactive)"},
      {"measurement": "GI50", "setting": "OVCAR-3", "value": "> 100 µM (inactive)"},
      {"measurement": "GI50", "setting": "HCT-116", "value": "> 100 µM (inactive)"},
      {"measurement": "GI50", "setting": "UO-31", "value": "> 100 µM (inactive)"},
      {"measurement": "GI50", "setting": "HOP-92", "value": "21.5 µM (inactive)"},
      {"measurement": "GI50", "setting": "A549", "value": "> 100 µM (inactive)"},
      {"measurement": "GI50", "setting": "SR", "value": "6.11 µM (inactive)"},
      {"measurement": "GI50", "setting": "SK-MEL-28", "value": "> 100 µM (inactive)"},
      {"measurement": "GI50", "setting": "NCI-H23", "value": "45.5 µM (inactive)"}
    ]}
  ]
}
